Earlier results as cited in patent US20210401863A1, “TREATMENT AND PREVENTION OF NEISSERIA GONORRHOEAE INFECTION USING CMP-ACTIVATED NONULOSONATE ANALOG COMPOUNDS” (NATIONAL RESEARCH COUNCIL OF CANADA, priority 2015, published 2021).

What was measured:
[1] = target: T1, gonococcal LOS sialyltransferase (Lst) (Neisseria gonorrhoeae, UniProt P72074); settings: from U.S. patent application Ser. No. 14/627,396; cited from earlier work
T1 construct: CMP-KDN served as a substrate for gonococcal Lst in the context of live bacteria; endogenous in cells; host or cells: N. gonorrhoeae F62 ΔlgtD (live bacteria)
T1 sequence (P72074 whole entry): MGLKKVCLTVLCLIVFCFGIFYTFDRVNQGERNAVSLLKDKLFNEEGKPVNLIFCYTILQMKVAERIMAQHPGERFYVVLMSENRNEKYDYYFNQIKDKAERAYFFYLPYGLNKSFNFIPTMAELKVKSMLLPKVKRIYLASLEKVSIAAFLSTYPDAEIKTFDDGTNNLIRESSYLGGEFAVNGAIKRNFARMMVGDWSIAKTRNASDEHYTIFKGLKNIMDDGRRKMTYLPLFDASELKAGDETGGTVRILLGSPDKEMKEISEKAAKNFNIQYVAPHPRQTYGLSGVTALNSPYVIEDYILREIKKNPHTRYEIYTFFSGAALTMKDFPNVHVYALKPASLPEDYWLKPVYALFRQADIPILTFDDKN

N. gonorrhoeae F62 ΔlgtD = settings: from U.S. patent application Ser. No. 14/627,396; cited from earlier work
purified human FH = settings: from U.S. Pat. No. 9,765,106 / Ser. No. 14/627,396; cited from earlier work

Row | SMILES | substrate for gonococcal LOS sialyltransferase (Lst) (earlier results) [1] | serum resistance / serum-mediated killing (earlier results) (N. gonorrhoeae F62 ΔlgtD) | fH binding to bacteria (earlier results) (purified human FH)
1 | CC(=O)NC1C(O)CC(OP(=O)(O)OCC2OC(n3ccc(N)nc3=O)C(O)C2O)(C(=O)O)OC1C(O)C(O)COC(C)=O (centres unmarked) [CMP-Neu5Ac9Ac] | can serve as substrates for gonococcal LOS sialyltransferase (Lst) | enhanced serum-mediated killing | 
2 | CO[C@H](CO)[C@@H](O)[C@@H]1O[C@@](OP(=O)(O)OC[C@H]2O[C@@H](n3ccc(N)nc3=O)[C@H](O)[C@@H]2O)(C(=O)O)C[C@H](O)[C@H]1NC(=O)CO [CMP-Neu5Gc8Me] | can serve as substrates for gonococcal LOS sialyltransferase (Lst) | enhanced serum-mediated killing | not enhance fH binding above levels seen with an unsialylated F62 ΔlgtD control
3 | Nc1ccn([C@@H]2O[C@H](COP(=O)(O)O[C@@]3(C(=O)O)C[C@H](O)[C@@H](NC(=O)CO)[C@H]([C@H](O)[C@H](O)CO)O3)[C@@H](O)[C@H]2O)c(=O)n1 [CMP-Neu5Gc] | can serve as substrates for gonococcal LOS sialyltransferase (Lst) | able to simulate the high-level serum resistance reported for CMP-Neu5Ac | high level of fH binding to bacteria
